SMILES strings stand for the structures. Where two headings read alike, the source gives them in different places. A value given as a limit tells only on which side of the number the result lay.

The conditions of data set [1]: coadministered P-gp and CYP3A4 inhibitor; cited from earlier work.
The nature of data set [2]: Clinical DDI study of steady-state CBD with orally dosed midazolam (GWEP17028). It counts as in vivo. The conditions noted are these: CBD at steady-state (750 mg bid, fed state), dosed concomitantly. The text has this:
The everolimus label contains no instructions to adjust the dose when administered with a P-gp inhibitor that is not also a moderate or strong CYP3A4 inhibitor.

A short description of data set [3]: Adverse effects of elevated CBD levels. It counts as in vivo. The text has this:
Transaminase can lead to hepatic dysfunction, including unexplained nausea, vomiting, right upper quadrant abdominal pain, fatigue, anorexia, or jaundice and/or dark urine. Elevated exposure of everolimus exposure is known to cause non-infectious pneumonitis, infections, severe hypersensitivity to reactions, angioedema, stomatitis, renal failure, impaired wound healing, metabolic disorders, myelosuppression, risk of infection or reduced immune response with vaccination, embryo-fetal toxicity, and stomatis, respiratory tract infection. The methods of the disclosure reduce the incidence of one or more of the above side effects.

Data set [4] is described as follows: Steady state AUC of CBD by daily dose. The following applies: human, in vivo. The text has this: In some embodiments, the AUCt1-t2 is reported as a geometric mean (% coefficient of variation).
The conditions of data set [5]: cited from earlier work.
A further data set concerns the target CYP3A4 (Homo sapiens, UniProt P08684). The following applies: oral dose of midazolam coadministered; cited from earlier work.
For data set [6] the following is noted: once-daily dosing; cited from earlier work.
Another data set is described as follows: clinical. The conditions noted are these: human, in vivo, 5 mg. An excerpt:
The duration of the trial was approximately 9 weeks, which includes a screening period (up to 4 weeks), a treatment period (18 days) and a safety follow-up period (2 weeks). After signing the informed consent form (ICF), participants enter the screening period (Day −28 to −1). On Day −1, screened participants who continued to meet eligibility criteria were admitted to the clinical research unit (CRU) at approximately […] and enrolled into the trial. On Day 1, participants received everolimus, 30 minutes after starting a standard meal. […] On Day 18, participants were discharged from the CRU once all assessments were completed.
The time of the meal consumed at the site during days of IMP administration was recorded, as was the dose and dosing time of IMP (as appropriate) relative to sampling times.
Log transformed Cmax, AUC(0-∞), and AUC(0-t) parameters for everolimus were analyzed using a linear mixed-effects model with a fixed effect for treatment and a random effect for participant. The treatment differences are back transformed to present the ratios of geometric means and the corresponding 90% confidence intervals (CIs).

For the next data set, the target named is T1, BCRP (Homo sapiens, UniProt Q9UNQ0).
T1 sequence (Q9UNQ0 1-655): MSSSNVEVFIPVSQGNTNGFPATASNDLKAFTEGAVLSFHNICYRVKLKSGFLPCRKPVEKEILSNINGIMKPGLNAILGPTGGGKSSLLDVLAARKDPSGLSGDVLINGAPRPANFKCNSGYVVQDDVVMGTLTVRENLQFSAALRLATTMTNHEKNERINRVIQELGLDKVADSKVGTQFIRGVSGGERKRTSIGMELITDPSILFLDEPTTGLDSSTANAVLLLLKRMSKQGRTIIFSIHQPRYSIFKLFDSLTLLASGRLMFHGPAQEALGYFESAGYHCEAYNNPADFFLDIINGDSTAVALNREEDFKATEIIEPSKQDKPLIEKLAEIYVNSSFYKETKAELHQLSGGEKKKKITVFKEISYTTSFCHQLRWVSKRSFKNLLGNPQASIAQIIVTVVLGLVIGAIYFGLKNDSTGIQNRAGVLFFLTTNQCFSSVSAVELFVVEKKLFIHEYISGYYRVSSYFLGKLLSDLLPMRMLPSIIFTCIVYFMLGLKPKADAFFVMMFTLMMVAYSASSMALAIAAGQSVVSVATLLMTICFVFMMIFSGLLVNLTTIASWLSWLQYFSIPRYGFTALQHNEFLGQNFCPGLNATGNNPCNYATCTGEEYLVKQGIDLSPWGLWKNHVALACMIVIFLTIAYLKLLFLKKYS
Kind of data set: Inhibition of BCRP-mediated transport. It counts as in vitro ADME. The conditions noted are these: at clinically relevant concentrations. The text has this:
(§1) The pharmacological properties of CBD are not fully elucidated. […] 7-COOH-CBD is an inhibitor of transport mediated via BCRP and BSEP at clinically relevant concentrations.

Another data set addresses P-gp (Homo sapiens, UniProt P08183). Kind of data set: P-gp substrate status of the CBD metabolite. It counts as in vitro ADME.
From the text: as §1

The target of a further data set is BSEP (Homo sapiens, UniProt O95342). Kind of data set: Inhibition of BSEP-mediated transport. The conditions noted are these: at clinically relevant concentrations. It counts as in vitro ADME.
From the text: as §1

CYP3A4, sequence (P08684 whole entry): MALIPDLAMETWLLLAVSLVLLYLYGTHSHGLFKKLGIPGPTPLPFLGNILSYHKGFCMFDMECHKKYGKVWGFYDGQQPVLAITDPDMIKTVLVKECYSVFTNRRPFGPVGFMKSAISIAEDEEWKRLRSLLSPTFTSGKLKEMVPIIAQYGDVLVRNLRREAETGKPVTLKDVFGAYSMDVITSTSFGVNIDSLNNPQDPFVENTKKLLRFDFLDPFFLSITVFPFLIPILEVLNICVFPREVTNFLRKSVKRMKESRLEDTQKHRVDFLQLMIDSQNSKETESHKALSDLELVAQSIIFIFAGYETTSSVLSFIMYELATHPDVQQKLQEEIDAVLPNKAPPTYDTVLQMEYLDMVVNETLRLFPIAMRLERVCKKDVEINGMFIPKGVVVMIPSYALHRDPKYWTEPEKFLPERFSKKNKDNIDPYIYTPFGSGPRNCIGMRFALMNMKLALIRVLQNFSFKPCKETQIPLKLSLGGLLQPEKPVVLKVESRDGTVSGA
P-gp, sequence (P08183 whole entry): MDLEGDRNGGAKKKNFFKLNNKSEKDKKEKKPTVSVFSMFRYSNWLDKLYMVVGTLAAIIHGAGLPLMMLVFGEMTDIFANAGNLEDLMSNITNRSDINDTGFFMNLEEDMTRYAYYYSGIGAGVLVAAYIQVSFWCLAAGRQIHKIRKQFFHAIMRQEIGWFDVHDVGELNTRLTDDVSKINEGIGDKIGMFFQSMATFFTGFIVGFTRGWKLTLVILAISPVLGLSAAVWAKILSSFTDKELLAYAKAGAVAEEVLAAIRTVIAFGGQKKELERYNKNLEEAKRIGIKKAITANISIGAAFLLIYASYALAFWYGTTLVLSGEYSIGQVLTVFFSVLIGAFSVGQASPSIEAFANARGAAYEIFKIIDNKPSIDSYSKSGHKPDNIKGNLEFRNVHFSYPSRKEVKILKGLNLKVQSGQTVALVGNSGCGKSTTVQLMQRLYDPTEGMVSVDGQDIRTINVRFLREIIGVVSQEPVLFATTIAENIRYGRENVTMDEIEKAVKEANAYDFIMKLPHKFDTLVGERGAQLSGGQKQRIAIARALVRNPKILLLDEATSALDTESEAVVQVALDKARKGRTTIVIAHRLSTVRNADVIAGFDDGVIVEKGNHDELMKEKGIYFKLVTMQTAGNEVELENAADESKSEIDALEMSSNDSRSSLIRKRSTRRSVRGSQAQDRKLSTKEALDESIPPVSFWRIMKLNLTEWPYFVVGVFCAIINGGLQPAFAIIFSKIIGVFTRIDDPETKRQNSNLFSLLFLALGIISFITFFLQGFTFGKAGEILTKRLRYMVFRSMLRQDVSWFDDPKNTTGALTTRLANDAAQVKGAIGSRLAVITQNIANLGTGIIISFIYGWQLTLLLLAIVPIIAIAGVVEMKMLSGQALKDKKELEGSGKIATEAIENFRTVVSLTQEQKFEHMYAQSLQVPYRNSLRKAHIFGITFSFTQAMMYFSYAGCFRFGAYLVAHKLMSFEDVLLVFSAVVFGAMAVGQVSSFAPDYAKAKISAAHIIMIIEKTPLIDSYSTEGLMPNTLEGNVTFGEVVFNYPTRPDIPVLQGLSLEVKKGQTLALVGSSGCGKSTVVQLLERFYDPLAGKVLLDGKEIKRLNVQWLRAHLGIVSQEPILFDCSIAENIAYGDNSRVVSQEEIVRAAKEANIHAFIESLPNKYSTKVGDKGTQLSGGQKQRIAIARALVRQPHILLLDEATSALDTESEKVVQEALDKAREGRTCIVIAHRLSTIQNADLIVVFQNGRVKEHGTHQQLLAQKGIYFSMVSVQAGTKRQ
BSEP, sequence (O95342 whole entry): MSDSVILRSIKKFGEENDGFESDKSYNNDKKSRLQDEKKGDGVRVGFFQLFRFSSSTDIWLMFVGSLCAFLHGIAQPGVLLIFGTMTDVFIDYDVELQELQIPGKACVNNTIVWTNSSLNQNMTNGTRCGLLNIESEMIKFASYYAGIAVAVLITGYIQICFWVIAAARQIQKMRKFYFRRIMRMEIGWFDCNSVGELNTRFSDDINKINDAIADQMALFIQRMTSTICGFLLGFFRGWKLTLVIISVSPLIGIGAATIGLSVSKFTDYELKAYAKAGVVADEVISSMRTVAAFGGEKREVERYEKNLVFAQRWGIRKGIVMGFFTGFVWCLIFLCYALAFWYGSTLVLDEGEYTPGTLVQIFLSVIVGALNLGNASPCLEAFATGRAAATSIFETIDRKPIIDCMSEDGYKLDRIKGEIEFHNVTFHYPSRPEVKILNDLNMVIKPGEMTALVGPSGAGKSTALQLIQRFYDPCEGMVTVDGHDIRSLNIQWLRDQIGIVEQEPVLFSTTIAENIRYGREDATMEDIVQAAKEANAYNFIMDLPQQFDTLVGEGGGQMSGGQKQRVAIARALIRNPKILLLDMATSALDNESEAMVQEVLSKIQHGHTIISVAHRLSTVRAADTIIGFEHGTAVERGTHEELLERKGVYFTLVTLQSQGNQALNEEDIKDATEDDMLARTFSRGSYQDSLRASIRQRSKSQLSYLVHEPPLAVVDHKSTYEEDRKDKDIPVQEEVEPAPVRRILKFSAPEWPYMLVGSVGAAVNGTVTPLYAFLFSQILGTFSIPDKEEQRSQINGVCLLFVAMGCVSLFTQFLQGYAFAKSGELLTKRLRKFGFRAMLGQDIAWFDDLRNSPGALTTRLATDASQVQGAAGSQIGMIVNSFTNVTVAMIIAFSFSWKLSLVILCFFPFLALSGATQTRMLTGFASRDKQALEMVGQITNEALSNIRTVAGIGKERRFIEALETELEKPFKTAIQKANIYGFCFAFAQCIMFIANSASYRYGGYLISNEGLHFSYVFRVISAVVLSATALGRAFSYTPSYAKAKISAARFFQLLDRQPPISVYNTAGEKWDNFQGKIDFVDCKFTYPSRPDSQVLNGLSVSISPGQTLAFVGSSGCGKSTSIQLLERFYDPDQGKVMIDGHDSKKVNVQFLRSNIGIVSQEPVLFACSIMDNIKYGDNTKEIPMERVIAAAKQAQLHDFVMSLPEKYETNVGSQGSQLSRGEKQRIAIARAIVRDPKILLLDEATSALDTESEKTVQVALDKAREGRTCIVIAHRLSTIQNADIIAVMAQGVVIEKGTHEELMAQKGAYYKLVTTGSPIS

Take `CC[C@H]1OC(=O)[C@H](C)[C@@H](O[C@H]2C[C@@](C)(OC)[C@@H](O)[C@H](C)O2)[C@H](C)[C@@H](O[C@@H]2O[C@H](C)C[C@H](N(C)C)[C@H]2O)[C@](C)(O)C[C@@H](C)C(=O)[C@H](C)[C@@H](O)[C@]1(C)O` [Erythromycin]: in data set [1], the “Increase of the AUC of everolimus” value is reported as 4.4 fold and the “Increase of the Cmax of everolimus” value is reported as 2.0 fold.

In the case of `CC(=O)N1CCN(c2ccc(OCC3COC(Cn4ccnc4)(c4ccc(Cl)cc4Cl)O3)cc2)CC1` (stereo not drawn) [ketoconazole], in data set [1], the “Increase of the AUC of everolimus” value is reported as 15 fold and the “Increase of the Cmax of everolimus” value was 3.9 fold.

Broadly, the AUC(0-t) is exposure summed from dosing to a finite time, without extrapolation to infinity. Read a low AUC(0-t) as less exposure. What is called AUC is the area under the concentration-time curve, a measure of exposure. Read a high AUC as more exposure. As for `C=C(C)[C@@H]1CCC(C)=C[C@H]1c1c(O)cc(CCCCC)cc1O` [CBD, Cannabidiol], the “Effect on orally dosed midazolam PK parameters” value in data set [2] is “no clinically significant effect”. Further, in [3], the “Adverse effects caused by elevated levels” value was “transaminase elevation, rash, somnolence, sedation, lethargy, diarrhea, pyrexia, weight decreased, nasopharyngitis, irritability, oropharyngeal pain, and decreased appetite”. The figures for the AUC(0-t) in data set [4] (5 mg/kg/day), in data set [4] (10 mg/kg/day) and in data set [4] (20 mg/kg/day) were 241 ng·h/mL, 722 ng·h/mL and 963 ng·h/mL, respectively. Moreover, the AUC in data set [4] (25 mg/kg/day) worked out at 2520 ng·h/mL; in [4] (50 mg/kg/day) it was 2730 ng·h/mL.

As usually defined, the AUC(0-inf) is the area under the concentration-time curve extrapolated to infinity. A higher AUC(0-inf) goes with high exposure. Usually Cmax stands for the peak of the concentration-time curve. Consider `CO[C@H]1C[C@@H]2CC[C@@H](C)[C@@](O)(O2)C(=O)C(=O)N2CCCC[C@H]2C(=O)O[C@H]([C@H](C)C[C@@H]2CC[C@@H](OCCO)[C@H](OC)C2)CC(=O)[C@H](C)/C=C(\C)[C@@H](O)[C@@H](OC)C(=O)[C@H](C)C[C@H](C)/C=C/C=C/C=C/1C` [Everolimus], for which, in data set [5] (2.5 mg of everolimus), the “Everolimus AUC24, geometric mean±SD” value is 570 ± 195 ng·h/mL; the “Everolimus Cmaxss, geometric mean±SD” value is 62.1 ± 13.1 ng/mL; the “Everolimus Cminss, geometric mean±SD” value was 13.6 ± 9.0 ng/mL. Moreover, in data set [5] (5 mg of everolimus), the “Everolimus AUC24, geometric mean±SD” value was 716 ± 123 ng·h/mL; the “Everolimus Cmaxss, geometric mean±SD” value is 114 ± 36 ng/mL; the “Everolimus Cminss, geometric mean±SD” value was 17.4 ± 4.5 ng/mL; the “Everolimus tmax, median (range)” value is 48 min. In addition, in [5] (10 mg of everolimus), the “Everolimus AUC24” value is 1470 ng·h/mL, the “Everolimus Cmaxss” value is 139 ng/mL and the “Everolimus Cminss” value is on record as 16.5 ng/mL. Besides, on CYP3A4, the “Increase in midazolam AUC0-inf” value is recorded as 30% and the “Increase in midazolam Cmax” value is listed as 25%. Also, the Time to steady-state in [6] is not above 2 weeks. In “clinical”, this compound came in with an AUC(0-inf) of 216 ng·h/mL, an AUC(0-t) of 95 ng·h/mL and a Cmax of 18 ng/mL.

Take `C=C(C)[C@@H]1CCC(C(=O)O)=C[C@H]1c1c(O)cc(CCCCC)cc1O` [7-COOH-CBD, 7-carboxy-cannabidiol]: the “Inhibition of transport mediated via BCRP” value at BCRP is recorded as “inhibitor”. Also, the P-gp substrate status result on P-gp is given as “substrate for P-gp”. In addition, at BSEP, the “Inhibition of transport mediated via BSEP” value is “inhibitor”.

The values above are taken from US12102619B2 (Jazz Pharmaceuticals Research UK Limited, priority 2020, dated 2024).
